Data on four molecules can be found in patent US20020147145A1, “Materials and methods relating to the degradation of Cdc25A in response to DNA damage” (priority 2000, published 2002).

Assay [1] has as its system Cdc25A. Description: Cdc25A protein level and turnover by immunoblotting in UV-irradiated U-2-OS cells. The assay is classed as cell-based, human. The arrangement: UV-induced degradation of the endogenous Cdc25A protein: dose or concentration left out as unconfirmed. (In general: Immunoblotting shows a protein as a band on a membrane.)
The subject of assay [2] is Cdc25A. Description: Cdc25A phosphatase activity assay (activation of cyclin B1/Cdc2) on lysates of UV-irradiated U-2-OS cells. The assay is classed as cell-based, human. The arrangement: Cdc25A-associated phosphatase activity after UV: dose or concentration left out as unconfirmed.
The target of a further assay is Chk1 (Homo sapiens, UniProt O14757). The conditions noted are these: UCN-01 1 μM added into the kinase reaction; Chk1 immunoprecipitated from U-2-OS lysates. The method, then:
(§1) FIG. 3. […] Asynchronous SAOS-2 cells were irradiated with UV (15 J/m^2) or left untreated. Cells were harvested 2 hours later and lysates were subjected to immunoblotting and phosphatase activity measurements. […] After an additional 2 hours, cells were lysed and analyzed for levels and complexes of HACdc25A and Chk1 as indicated. […] Chk1 was immunoprecipitated from lysates of U-2-OS cells treated as in (B), and its activity determined in an in vitro kinase assay in the presence or absence of the Chk1 inhibitor, UCN-01 (1 μM), using purified GST-Cdc25A as a substrate.
(§2) Immunochemical techniques: Antibodies used in this study: Mouse monoclonal antibodies against human Cdc25A (DCS-122, DCS-124) and F-6 (Santa Cruz), Cdc25B (DCS-162, DCS-164) and Cdc25C (DCS-193) full length proteins fused to GST were generated by means of established hybridoma technology as described. Rabbit polyclonal antobody against Cdc25C (SC-327) were purchased from Santa Cruz. Antiserum against cdk2 Tyr15 was obtained from Calbiochem.

The test system of the next assay is Chk1/Cdc25A. Description: Chk1/Cdc25A association (co-immunoprecipitation) in UV-irradiated U-2-OS cells transfected with HA-Cdc25A. In kind it is cell-based, human. The conditions noted are these: caffeine 10 mM, 1 hour preincubation before UV (15 J/m^2), lysed 2 hours later. As for the experimental part: as §1, §2
For assay [3], the system named is tyrosine phosphatases including Cdc25.
Description: as §2

Where [4] appears, read: UCN-01 at the time of UV irradiation (15 J/m^2), U-2-OS.

Entries after “also recorded” stand apart in the source; their conditions may differ. Non-standard residues stand in square brackets, D forms with d. Residues, ends and D or L forms follow the SMILES beside them. Nle = CCCC[C@H](N)C(=O)O

Chain of Chk1 (O14757 whole entry): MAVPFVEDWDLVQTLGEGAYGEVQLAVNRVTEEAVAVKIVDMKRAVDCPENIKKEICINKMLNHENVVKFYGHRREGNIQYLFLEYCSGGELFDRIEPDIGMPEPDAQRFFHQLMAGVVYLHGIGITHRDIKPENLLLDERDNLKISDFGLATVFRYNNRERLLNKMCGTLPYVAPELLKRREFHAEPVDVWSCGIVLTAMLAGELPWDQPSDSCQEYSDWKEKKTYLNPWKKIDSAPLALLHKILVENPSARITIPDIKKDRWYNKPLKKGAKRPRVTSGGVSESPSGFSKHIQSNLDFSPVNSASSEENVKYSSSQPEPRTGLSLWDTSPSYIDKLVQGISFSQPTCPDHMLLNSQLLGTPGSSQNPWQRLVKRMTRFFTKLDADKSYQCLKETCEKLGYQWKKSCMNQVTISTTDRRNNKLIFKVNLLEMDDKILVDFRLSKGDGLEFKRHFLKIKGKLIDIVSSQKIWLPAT

With `CCCC[C@@H](C=O)NC(=O)[C@H](CC(C)C)NC(=O)[C@H](CC(C)C)NC(C)=O` [LLnL] (Ac-Leu-Leu-[Nle]-aldehyde), in the assay with Cdc25A [1] (LLnL 25 μg/ml added immediately after UV (15 J/m^2), U-2-OS (endogenous) and U-2-OS/B3C4 (ectopic Cdc25A), lysates 1 hour after UV), the “UV-induced reduction of Cdc25A protein level” value is “entirely prevented”. In addition, the “UV-induced reduction of Cdc25A phosphatase activity” value in the assay with Cdc25A [2] (LLnL 25 μg/ml added immediately after UV (15 J/m^2), endogenous and ectopic Cdc25A, 1 hour after UV) is “entirely prevented”.
As to `CN[C@@H]1C[C@H]2O[C@@](C)([C@@H]1OC)n1c3ccccc3c3c4c(c5c6ccccc6n2c5c31)C(=O)N[C@@H]4O` [UCN-01], the “UV-induced degradation of the endogenous Cdc25A protein” value with Cdc25A [1] (setting [4]) is reported as “completely abolished; also recorded: prevented”. The “Cdc25A-associated phosphatase activity after UV” value in the assay with Cdc25A [2] (setting [4]) is “allowed maintenance of high”. Besides, the “basal and UV-induced Chk1 kinase activities towards GST-Cdc25A” value on Chk1 was “completely inhibited”.
Turning to `Cn1c(=O)c2c(ncn2C)n(C)c1=O` [caffeine], the “half-life of the Cdc25A protein after UV” value with Cdc25A [1] (caffeine prior to UV irradiation, compared to non-irradiated cells) was “restored”. The “UV-induced increase in Chk1/Cdc25A association” value in the assay on Chk1/Cdc25A was “quantitatively prevented”.
Regarding sodium vanadate, the “ability of mock-treated cell lysates to dephosphorylate and superactivate cyclin E/cdk2” value in assay [3] is reported as “completely prevented”.
